Data as given in paper PMC7933930, “Development of a small molecule that corrects misfolding and increases secretion of Z α1‐antitrypsin” (EMBO Molecular Medicine, 2021).
Converted amounts (≈) assume the structure as drawn.

Legend:
Solubility in FaSSIF = assay type: physicochemical; conditions: amorphous, read-out: solubility of amorphous drug substance in FaSSIF
[1] = target: L-type Ca channel (CaV1.2) (Homo sapiens, UniProt Q13936); assay: in vitro; assay type: cell-based
Protocol: (§1) GSK716 selectivity and PK properties were profiled in order to investigate the suitability of GSK716 for progression into in vivo studies and the potential for taking it forward as a clinical candidate for testing in humans. Since GSK716 results in loss of inhibitory activity of α1‐antitrypsin, the effect of the compound was assessed on other closely related serpins. […] Furthermore, there were no off‐target effects in a panel of assays considered predictive of known safety liabilities that precluded further development of GSK716 (Table EV1).

LCK = LCK (Homo sapiens, UniProt P06239); assay: Off‐target panel: LCK; assay type: biochemical; conditions: Inhibition, read-out: Mean (PXC50)
Protocol: as §1

PXR (human) = PXR (human) (Homo sapiens, UniProt O75469); assay: Off‐target panel: PXR (human); assay type: cell-based; conditions: Activator, read-out: Mean (PXC50) (converted)
Protocol: as §1

Z α1‐antitrypsin = Z α1‐antitrypsin (Homo sapiens, UniProt P01009, E366K); assay: TR‐FRET immunoassay (2C1 antibody) of Z α1‐antitrypsin polymerisation, 37°C, 72 h; assay type: biochemical; parameters: purified from the plasma of Z α1‐antitrypsin homozygotes; from tissue; host or cells: human plasma of Z α1-antitrypsin homozygotes
From the text: Z α1‐antitrypsin is a conformationally dynamic molecule (Lomas et al, 1992; Knaupp et al, 2010) that represents a non‐classical target for drug discovery. A cell‐free assay approach to hit finding was undertaken so as not to miss compounds that bind α1‐antitrypsin and block polymerisation but lack the molecular properties to cross cell membranes. This comprised the following: (i) an encoded library technology (ELT) screen (Goodnow et al, 2017) of a library with a nominal diversity of 2 × 10^12 unique components to identify binders to Z α1‐antitrypsin and (ii) a high‐throughput screen (HTS) of the GSK compound collection (~ 1.7 million compounds) for small molecules that could block polymerisation of Z α1‐antitrypsin. […] In the HTS assay, polymerisation of purified Z α1‐antitrypsin was induced by incubation at 37°C for 72 h in the presence of test compounds, with end‐point quantification of polymers performed using the polymer‐specific monoclonal antibody, 2C1 (Miranda et al, 2010) in a TR‐FRET‐based immunoassay. […]
An antibody‐based time‐resolved fluorescence resonance energy transfer (TR‐FRET) assay was developed to monitor the polymerisation of 5 nM Z α1‐antitrypsin following incubation with varying concentrations of compounds at 37°C for 72 h. This assay used the 2C1 monoclonal antibody (1.25 nM) that is specific to pathological polymers of α1‐antitrypsin (Miranda et al, 2010), a polyclonal antibody (1/320 dilution) that binds to all forms of α1‐antitrypsin (Abcam product 9373), an anti‐mouse IgG (1.5 nM) labelled with fluorescence donor Eu‐W1024 (Perkin Elmer product AD0076) and an anti‐rabbit IgG (14.3 nM labelled with acceptor [APC]). […] The TR‐FRET signal was read on an Envision plate reader (PerkinElmer), by excitation of Europium at 337 nm and detection of emission at 665 and 620 nm.

Chain of Z α1‐antitrypsin (P01009 25-418 E366K): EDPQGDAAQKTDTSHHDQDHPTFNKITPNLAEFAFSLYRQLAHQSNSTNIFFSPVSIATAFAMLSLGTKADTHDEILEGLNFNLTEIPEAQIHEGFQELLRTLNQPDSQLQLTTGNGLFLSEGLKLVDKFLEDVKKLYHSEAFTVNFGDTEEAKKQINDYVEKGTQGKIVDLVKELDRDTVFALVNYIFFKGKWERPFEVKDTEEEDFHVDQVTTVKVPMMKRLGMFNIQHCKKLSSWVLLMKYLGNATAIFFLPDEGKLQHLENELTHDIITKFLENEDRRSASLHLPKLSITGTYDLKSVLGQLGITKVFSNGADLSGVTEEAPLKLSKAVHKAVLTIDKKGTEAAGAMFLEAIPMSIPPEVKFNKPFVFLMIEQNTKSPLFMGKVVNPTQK
Chain of PXR (human) (O75469 whole entry): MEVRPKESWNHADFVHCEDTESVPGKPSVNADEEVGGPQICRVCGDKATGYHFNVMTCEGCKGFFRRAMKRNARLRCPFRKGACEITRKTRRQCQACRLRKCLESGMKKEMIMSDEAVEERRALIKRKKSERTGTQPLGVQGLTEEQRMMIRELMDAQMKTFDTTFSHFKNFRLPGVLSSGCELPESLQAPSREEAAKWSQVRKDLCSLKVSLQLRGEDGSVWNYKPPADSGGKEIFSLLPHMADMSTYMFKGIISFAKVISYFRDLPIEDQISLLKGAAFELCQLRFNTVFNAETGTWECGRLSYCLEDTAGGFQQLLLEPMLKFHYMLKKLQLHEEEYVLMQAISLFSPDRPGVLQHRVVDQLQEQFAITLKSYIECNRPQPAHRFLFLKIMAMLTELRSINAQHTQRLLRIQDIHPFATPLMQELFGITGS
Chain of L-type Ca channel (CaV1.2) (Q13936 whole entry): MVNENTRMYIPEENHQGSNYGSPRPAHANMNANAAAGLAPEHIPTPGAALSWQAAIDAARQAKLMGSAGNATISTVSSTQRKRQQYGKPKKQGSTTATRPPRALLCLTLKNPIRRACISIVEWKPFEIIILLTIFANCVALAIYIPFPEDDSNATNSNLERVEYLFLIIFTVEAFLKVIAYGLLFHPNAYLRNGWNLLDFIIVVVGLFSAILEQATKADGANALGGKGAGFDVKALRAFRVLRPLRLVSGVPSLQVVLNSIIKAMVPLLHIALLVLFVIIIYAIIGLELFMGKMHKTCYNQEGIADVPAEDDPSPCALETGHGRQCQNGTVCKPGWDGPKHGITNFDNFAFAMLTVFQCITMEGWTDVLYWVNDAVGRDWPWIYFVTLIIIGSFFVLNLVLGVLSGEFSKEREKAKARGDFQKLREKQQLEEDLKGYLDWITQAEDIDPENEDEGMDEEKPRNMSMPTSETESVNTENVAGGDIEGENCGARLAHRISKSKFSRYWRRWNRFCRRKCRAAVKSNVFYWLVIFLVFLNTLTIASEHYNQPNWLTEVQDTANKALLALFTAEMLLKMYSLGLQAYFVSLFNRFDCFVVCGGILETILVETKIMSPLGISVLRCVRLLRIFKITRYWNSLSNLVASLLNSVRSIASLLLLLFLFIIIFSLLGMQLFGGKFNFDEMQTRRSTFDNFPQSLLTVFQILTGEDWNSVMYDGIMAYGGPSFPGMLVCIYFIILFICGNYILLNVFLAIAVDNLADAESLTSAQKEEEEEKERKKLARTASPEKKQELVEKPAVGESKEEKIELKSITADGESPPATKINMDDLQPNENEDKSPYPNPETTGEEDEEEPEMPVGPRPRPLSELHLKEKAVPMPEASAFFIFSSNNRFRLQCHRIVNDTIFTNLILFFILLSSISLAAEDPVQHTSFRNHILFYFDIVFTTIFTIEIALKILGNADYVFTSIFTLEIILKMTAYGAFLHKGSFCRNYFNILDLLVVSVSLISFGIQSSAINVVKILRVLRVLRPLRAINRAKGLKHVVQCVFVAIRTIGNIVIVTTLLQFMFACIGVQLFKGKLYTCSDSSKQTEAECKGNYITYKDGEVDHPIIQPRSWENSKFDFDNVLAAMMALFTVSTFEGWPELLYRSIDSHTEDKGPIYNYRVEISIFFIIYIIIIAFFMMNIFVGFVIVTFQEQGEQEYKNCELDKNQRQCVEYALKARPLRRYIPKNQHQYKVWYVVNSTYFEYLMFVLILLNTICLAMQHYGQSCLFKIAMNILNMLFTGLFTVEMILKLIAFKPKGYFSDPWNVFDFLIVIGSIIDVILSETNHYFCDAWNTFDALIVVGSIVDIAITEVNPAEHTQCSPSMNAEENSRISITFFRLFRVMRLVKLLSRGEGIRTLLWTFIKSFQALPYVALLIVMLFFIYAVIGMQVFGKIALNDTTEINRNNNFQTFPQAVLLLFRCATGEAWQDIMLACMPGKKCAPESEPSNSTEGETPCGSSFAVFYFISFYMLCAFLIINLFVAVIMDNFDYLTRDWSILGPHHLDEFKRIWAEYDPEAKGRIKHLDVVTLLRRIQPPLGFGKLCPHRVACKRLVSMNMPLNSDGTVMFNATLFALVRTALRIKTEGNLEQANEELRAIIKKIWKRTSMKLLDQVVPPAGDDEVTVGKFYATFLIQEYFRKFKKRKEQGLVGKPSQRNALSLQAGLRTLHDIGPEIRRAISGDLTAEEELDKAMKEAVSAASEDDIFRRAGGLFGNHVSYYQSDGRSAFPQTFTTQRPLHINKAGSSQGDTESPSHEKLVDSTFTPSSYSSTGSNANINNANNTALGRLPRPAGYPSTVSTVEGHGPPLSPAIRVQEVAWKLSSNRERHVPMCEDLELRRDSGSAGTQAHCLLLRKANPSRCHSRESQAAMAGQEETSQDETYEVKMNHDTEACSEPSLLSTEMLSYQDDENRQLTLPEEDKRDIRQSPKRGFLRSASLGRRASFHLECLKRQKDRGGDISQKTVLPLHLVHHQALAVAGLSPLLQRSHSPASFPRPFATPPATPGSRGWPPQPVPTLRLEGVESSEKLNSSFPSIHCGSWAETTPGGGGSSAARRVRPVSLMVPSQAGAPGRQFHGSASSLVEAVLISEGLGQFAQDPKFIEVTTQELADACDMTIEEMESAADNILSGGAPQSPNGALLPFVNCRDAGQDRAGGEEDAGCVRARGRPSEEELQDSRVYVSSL
Chain of L-type Ca channel (CaV1.2) (Q08289 whole entry partner): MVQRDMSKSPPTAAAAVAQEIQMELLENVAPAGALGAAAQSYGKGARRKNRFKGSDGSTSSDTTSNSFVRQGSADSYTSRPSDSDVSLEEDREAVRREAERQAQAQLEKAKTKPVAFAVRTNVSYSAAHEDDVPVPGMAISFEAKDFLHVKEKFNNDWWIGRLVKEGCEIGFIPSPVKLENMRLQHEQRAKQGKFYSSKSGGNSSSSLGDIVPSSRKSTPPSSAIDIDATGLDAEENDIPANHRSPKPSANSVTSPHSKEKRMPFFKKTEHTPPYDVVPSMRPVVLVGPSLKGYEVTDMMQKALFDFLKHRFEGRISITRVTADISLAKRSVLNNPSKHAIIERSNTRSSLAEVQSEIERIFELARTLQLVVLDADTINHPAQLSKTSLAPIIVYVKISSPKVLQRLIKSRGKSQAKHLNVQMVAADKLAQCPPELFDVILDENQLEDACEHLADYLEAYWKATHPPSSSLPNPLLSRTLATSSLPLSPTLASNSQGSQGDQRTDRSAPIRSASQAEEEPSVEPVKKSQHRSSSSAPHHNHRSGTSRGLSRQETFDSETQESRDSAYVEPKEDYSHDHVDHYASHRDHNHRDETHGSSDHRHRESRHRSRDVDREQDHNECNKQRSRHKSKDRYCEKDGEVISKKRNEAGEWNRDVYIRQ
Chain of L-type Ca channel (CaV1.2) (P54289 25-946 partner limits assumed): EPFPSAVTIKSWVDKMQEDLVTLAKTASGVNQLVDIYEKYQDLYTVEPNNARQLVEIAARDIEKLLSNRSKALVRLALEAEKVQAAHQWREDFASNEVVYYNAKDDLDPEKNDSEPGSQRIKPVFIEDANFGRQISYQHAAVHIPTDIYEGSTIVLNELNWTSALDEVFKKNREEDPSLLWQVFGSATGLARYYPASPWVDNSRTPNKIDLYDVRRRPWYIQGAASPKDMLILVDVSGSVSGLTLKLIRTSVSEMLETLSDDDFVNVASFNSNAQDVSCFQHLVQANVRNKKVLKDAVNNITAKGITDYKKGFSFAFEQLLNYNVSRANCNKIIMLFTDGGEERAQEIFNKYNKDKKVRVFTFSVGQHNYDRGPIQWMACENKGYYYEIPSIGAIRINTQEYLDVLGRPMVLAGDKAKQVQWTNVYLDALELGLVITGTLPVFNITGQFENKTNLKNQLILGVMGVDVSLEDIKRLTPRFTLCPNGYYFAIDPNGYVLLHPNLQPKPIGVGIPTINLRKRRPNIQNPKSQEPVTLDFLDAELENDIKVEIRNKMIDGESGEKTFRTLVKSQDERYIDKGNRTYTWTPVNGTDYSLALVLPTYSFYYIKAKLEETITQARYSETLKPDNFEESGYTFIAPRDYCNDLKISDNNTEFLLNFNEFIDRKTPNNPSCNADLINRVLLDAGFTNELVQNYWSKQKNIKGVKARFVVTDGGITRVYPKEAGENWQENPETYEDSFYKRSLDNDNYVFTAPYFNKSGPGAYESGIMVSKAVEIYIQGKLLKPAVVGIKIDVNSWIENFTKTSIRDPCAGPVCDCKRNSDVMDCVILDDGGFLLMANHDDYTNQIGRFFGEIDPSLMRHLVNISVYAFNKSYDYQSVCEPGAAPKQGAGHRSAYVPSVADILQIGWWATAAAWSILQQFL
Chain of L-type Ca channel (CaV1.2) (P54289 947-1103 partner limits assumed): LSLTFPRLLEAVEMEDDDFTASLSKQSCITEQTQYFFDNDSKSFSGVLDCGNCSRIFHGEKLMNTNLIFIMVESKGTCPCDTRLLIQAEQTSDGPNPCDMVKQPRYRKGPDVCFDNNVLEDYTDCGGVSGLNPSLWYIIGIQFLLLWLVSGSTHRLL

Question: Which results are given for CCC[C@@H](NC(=O)c1cccc2c1CC(=O)N2)[C@@H](O)c1cccc(F)c1C [GSK716]?
Answer: solubility (Solubility in FaSSIF): 969 µg/mL (≈ 2620 µM); IC50 [1]: < 2.14 µM; IC50 (LCK): > 31.6 µM; EC50 (PXR (human)): 20 µM; IC50 (Z α1‐antitrypsin; 5 nM Z α1‐antitrypsin, 37°C, 72 h, read-out: pIC50, blocking polymerisation in the TR‐FRET immunoassay (converted)): 0.00501 µM; increase in potency over GSK425 (Z α1‐antitrypsin; TR‐FRET polymerisation immunoassay): ~ 100 fold
